Assay results reported in US20240130988A1, “Use of stilbene compounds in the preparation of anti-tumor drugs” (Guangzhou AnHao Pharmaceutical Technology CO., LTD., priority 2022, published 2024).

How the values were obtained:
[1] = system: ocular surface neovascularization; assay: Neovascularization of ocular surface in rats (NaOH cornea model); type: in vivo, SD rats; conditions: 50 μL/eye, 3 times/day, 10 days
Method: Four SD rats, regardless of gender, were subjected to single eye modeling, with a total of four eye models. One eye was used as a blank control (untreated group), one eye was used as a model control, one eye was used as treatment group 1, and one eye was used as treatment group 2.
The rats were anesthetized with pentobarbital sodium (25-30 mg/(kg, intraperitoneal injection), and two drops of oxybuprocaine hydrochloride eye drops were administrated to both eyes for ocular surface anesthesia. 30 μL of NaOH solution (1 mol/L) was placed with a pipette on a dry filter paper with a diameter of approximate 3 mm for 10 seconds. The moistened circular filter paper was gently applied to the center of the cornea (covering the corneoscleral margin) of the model eye, and a tight fit was kept for suitable time. The filter paper was removed, and then physiological saline was used to wash the eye, which was rinsed with a needle for 1 minute. After operation, ofloxacin eye ointment was applied to prevent infection (3 times/day, for 5 days).
On the 5th day (D5), neovascularization began to appear, and D5 was the first day of administrating the test compound (d1). Three eye drops were administered daily for 10 consecutive days (d10). […] After completion of the experiment, the rats were euthanized.
Blank control group (untreated group): no any treatment, no modeling, no administration. […]

[2] = system: human lung cancer 95D and human liver cancer Bel7404; assay: Tumor necrosis in vivo, HE staining; parameters: species or system nude mice; conditions: 400 mg/kg
Method: Well growing solid tumors (human lung cancer […]) and human liver cancer Bel7404) were cut into uniform small pieces of approximate 2-3 mm under sterile conditions, and subcutaneously inoculated into the right armpit of each nude mouse using a cannula. 14 days after inoculation, each mouse was treated with compound 6 by oral administration at a dosage of 400 mg/kg (in a dosage by volume of 0.5 mL/20 g body weight), and compound 6 was prepared as a suitable solution with sterile normal saline. At different time points (4 h, 24 h) after administration, the nude mice were killed, and the tumor tissue was dissected and fixed with 10% formalin. The pathological sections were made, followed by HE staining and taking photos, to observe the internal necrosis and cell proliferation within the tumors.

COc1ccc(/C=C(/C(=O)O)c2cc(OC)c(OC)c(OC)c2)cc1O [Compound 6, (E)-3-(3-hydroxy-4-methoxyphenyl)-2-(3,4,5-trimethoxyphenyl)acrylic acid]
Vascularization area ([1]; high-dose group, eye drops 25 mg/mL): significantly decreased
Neovascularization of the ocular surface ([1]; treatment groups, eye drops 10 or 25 mg/mL, vs model group): reduced compared to the model group
Internal necrosis within the tumors (HE staining) ([2]; 4 h after oral administration): necrosis began to appear within the tumor tissues
Internal necrosis within the tumors (HE staining) ([2]; 24 h after oral administration): massive necrosis
